Measurements from PMC9221290, “Alkaloids of Dicranostigma franchetianum (Papaveraceae) and Berberine Derivatives as a New Class of Antimycobacterial Agents” (Biomolecules, 2022).
Read-outs that look alike come from different tables or passages of the source.

Columns and labels:
in vitro = conditions: human, % of cell viability compared to control; for viability at 1 µM: HepG2, 1 µM; for viability at 5 µM: HepG2, 5 µM; for viability at 10 µM: HepG2, 10 µM; for viability at 100 µM: HepG2, 100 µM; for viability at 25 µM: HepG2, 25 µM; for viability at 50 µM: HepG2, 50 µM; for viability at 75 µM: HepG2, 75 µM
[1] = test system: Mycobacterium avium DSM 44156 (ATCC 25291); assay: Antimycobacterial microdilution broth assay (resazurin), M. avium; assay type: cell-based; conditions: Mycobacterium avium, 96 h, read-out: MIC M. avium, microdilution broth, resazurin, 96 h
HepG2 cells [2] = test system: HepG2 cells
HepG2 cells [3] = assay: cells; conditions: Homo sapiens, HepG2, 24 h
[4] = test system: Mycobacterium kansasii DSM 44162 (ATCC 12478); assay: Antimycobacterial microdilution broth assay (resazurin), M. kansasii; assay type: cell-based; conditions: Mycobacterium kansasii, 96 h, read-out: MIC M. kansasii, microdilution broth, resazurin, 96 h
[5] = test system: Mycolicibacterium smegmatis DSM 43465 (ATCC 607); assay: Antimycobacterial microdilution broth assay (resazurin), M. smegmatis; assay type: cell-based; conditions: Mycolicibacterium smegmatis, 48 h, read-out: MIC M. smegmatis, microdilution broth, resazurin, 48 h
[6] = test system: Mycolicibacterium aurum DSM 43999 (ATCC 23366); assay: Antimycobacterial microdilution broth assay (resazurin), M. aurum; assay type: cell-based; conditions: Mycolicibacterium aurum, 72 h, read-out: MIC M. aurum, microdilution broth, resazurin, 72 h
[7] = test system: Mtb H37Ra ITM-M006710 (ATCC 9431); assay: Antimycobacterial microdilution broth assay (resazurin), Mtb H37Ra; assay type: cell-based, Mycobacterium tuberculosis; conditions: Mycobacterium tuberculosis, read-out: MIC Mtb H37Ra
[8] = read-out: HepG2 IC50, 1. measurement, MTT, 24 h, single measurement 1
[9] = read-out: HepG2 IC50, 2. measurement, MTT, 24 h, single measurement 2
[10] = read-out: HepG2 IC50, 3. measurement, MTT, 24 h, single measurement 3
[11] = read-out: HepG2 IC50, MTT, 24 h incubation
[12] = 120 h, microdilution broth, resazurin, 120 h
[13] = calculated from MIC (µg/mL) and MW

| Compound | viability at 1 µM (in vitro; 1. measurement) [%] | viability at 5 µM (in vitro; 1. measurement) [%] | viability at 10 µM (in vitro; 1. measurement) [%] | viability at 100 µM (in vitro; 1. measurement) [%] | viability at 1 µM (in vitro; 2. measurement) [%] | viability at 5 µM (in vitro; 2. measurement) [%] | viability at 10 µM (in vitro; 2. measurement) [%] | viability at 25 µM (in vitro; 2. measurement) [%] | viability at 50 µM (in vitro; 2. measurement) [%] | viability at 75 µM (in vitro; 2. measurement) [%] | viability at 100 µM (in vitro; 2. measurement) [%] | viability at 1 µM (in vitro; 3. measurement) [%] | viability at 5 µM (in vitro; 3. measurement) [%] | viability at 10 µM (in vitro; 3. measurement) [%] | viability at 25 µM (in vitro; 3. measurement) [%] | viability at 50 µM (in vitro; 3. measurement) [%] | viability at 75 µM (in vitro; 3. measurement) [%] | viability at 100 µM (in vitro; 3. measurement) [%] | MIC [1] [µg/mL] | SI (selectivity index) (HepG2 cells [2]) | other results |
| --- | --- | --- | --- | --- | --- | --- | --- | --- | --- | --- | --- | --- | --- | --- | --- | --- | --- | --- | --- | --- | --- |
| COc1ccc2cc3[n+](cc2c1OCc1ccccc1)CCc1cc2c(cc1-3)OCO2 [16a, 9-O-benzylberberine chloride] | 93.4 | 81.9 | 68.9 | 8.76 | 87.9 | 73 | 59.2 | 48.9 | 42.1 | 31.1 | 16.6 | 96.4 | 76.4 | 60.7 | 50.3 | 44.9 | 29.6 | 15.3 | 3.12 | 1.76 | viability at 20 µM (in vitro; 1. measurement, HepG2, 20 µM): 59.4%; viability at 40 µM (in vitro; 1. measurement, HepG2, 40 µM): 56.2%; viability at 60 µM (in vitro; 1. measurement, HepG2, 60 µM): 41.5%; viability at 80 µM (in vitro; 1. measurement, HepG2, 80 µM): 20.2%; IC50 (HepG2 cells [3]; [8]): 29.1 µM; IC50 (HepG2 cells [3]; [9]): 20.8 µM; IC50 (HepG2 cells [3]; [10]): 23.5 µM; IC50 (HepG2 cells [3]; [11]): 24.5 ± 4.25 µM; MIC [4]: 6.25 µg/mL; MIC [5]: 0.78 µg/mL; MIC [6]: 3.12 µg/mL; MIC [7, 12]: 6.25 µg/mL; MIC [7, 13]: 13.9 µM |
| COc1ccc2cc3[n+](cc2c1OCc1cccc(Cl)c1)CCc1cc2c(cc1-3)OCO2 [16h, 9-O-(3-chlorbenzyl)berberine chloride] | 65.4 | 66.5 | 51.7 | 15.7 | 94.6 | 67.4 | 54.2 | 44.6 | 12.8 | 1.14 | 0.68 | 87.2 | 54.4 | 47.8 | 36 | 15.6 | 2.92 | 0.98 | 1.56 | 1.59 | viability at 25 µM (in vitro; 1. measurement): 44.2%; viability at 50 µM (in vitro; 1. measurement): 36.5%; viability at 75 µM (in vitro; 1. measurement): 23.8%; IC50 (HepG2 cells [3]; [8]): 8.53 µM; IC50 (HepG2 cells [3]; [9]): 11.9 µM; IC50 (HepG2 cells [3]; [10]): 7.91 µM; IC50 (HepG2 cells [3]; [11]): 9.44 ± 2.13 µM; MIC [4]: 3.12 µg/mL; MIC [5]: 0.78 µg/mL; MIC [6]: 1.56 µg/mL; MIC [7, 12]: 3.12 µg/mL; MIC [7, 13]: 5.93 µM |
